Test results: ChEMBL document CHEMBL1152560, “Substituted 2-arylbenzothiazoles as kinase inhibitors: hit-to-lead optimization” (Bioorg Med Chem, 2009)

Legend:
[1] = target: T1, Serine/threonine-protein kinase Nek11 (Homo sapiens) (UniProt Q8NG66); experiment: Residual activity of NEK11 at 1 uM by microplate scintillation counting
T1 sequence (whole entry): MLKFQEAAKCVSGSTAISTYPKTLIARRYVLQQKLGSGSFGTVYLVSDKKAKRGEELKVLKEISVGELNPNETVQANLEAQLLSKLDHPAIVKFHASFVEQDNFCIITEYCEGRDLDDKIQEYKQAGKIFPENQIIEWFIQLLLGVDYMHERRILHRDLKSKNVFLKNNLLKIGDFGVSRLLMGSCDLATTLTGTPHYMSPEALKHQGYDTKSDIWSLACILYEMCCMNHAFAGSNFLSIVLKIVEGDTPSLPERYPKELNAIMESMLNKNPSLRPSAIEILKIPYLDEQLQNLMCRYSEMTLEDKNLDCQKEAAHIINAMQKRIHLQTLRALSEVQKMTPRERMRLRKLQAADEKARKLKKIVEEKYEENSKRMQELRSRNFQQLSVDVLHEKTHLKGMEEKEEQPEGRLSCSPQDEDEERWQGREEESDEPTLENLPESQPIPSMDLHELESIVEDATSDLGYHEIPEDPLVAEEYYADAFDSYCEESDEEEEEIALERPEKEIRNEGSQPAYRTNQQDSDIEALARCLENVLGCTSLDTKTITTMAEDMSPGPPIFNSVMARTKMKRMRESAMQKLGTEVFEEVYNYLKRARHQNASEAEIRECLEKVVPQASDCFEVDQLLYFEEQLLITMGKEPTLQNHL

[2] = target: T2, Lymphokine-activated killer T-cell-originated protein kinase (Homo sapiens) (UniProt Q96KB5); experiment: Residual activity of PBK at 0.1 uM by microplate scintillation counting
T2 sequence (whole entry): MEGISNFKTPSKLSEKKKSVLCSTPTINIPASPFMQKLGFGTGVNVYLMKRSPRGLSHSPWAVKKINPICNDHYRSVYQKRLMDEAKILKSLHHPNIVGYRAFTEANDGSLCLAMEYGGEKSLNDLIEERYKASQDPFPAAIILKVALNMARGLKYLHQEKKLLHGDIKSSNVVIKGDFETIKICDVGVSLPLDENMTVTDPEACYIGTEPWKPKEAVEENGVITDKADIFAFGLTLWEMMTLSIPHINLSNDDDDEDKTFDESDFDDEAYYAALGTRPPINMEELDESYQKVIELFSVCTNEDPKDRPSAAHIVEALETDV

Aurora kinase B = Aurora kinase B (Homo sapiens, UniProt Q96GD4); experiment: Residual activity of Aurora-B at 10 uM by microplate scintillation counting
[3] = target: T3, Megakaryocyte-associated tyrosine-protein kinase (Homo sapiens) (UniProt P42679); experiment: Residual activity of MATK at 1 uM by microplate scintillation counting
T3 sequence (whole entry): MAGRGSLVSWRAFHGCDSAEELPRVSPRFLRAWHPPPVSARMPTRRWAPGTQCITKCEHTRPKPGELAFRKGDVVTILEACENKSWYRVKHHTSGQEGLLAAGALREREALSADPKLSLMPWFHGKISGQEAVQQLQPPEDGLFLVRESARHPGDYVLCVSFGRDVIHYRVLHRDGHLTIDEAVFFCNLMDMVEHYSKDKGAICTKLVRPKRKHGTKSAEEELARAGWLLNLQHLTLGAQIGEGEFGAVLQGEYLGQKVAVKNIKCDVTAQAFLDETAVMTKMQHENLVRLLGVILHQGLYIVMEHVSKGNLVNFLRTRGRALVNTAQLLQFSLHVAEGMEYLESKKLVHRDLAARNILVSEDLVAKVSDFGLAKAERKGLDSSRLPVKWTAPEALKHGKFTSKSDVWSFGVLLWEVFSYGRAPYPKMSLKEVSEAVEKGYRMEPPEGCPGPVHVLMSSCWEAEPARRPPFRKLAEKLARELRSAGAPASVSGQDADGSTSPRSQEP

[4] = target: Fibroblast growth factor receptor 3 (Homo sapiens) (UniProt P22607); experiment: Residual activity of FGFR3 at 0.1 uM by microplate scintillation counting
[5] = target: Ribosomal protein S6 kinase alpha-2 (Homo sapiens) (UniProt Q15349); experiment: Residual activity of RPS6KA2 at 1 uM by microplate scintillation counting
[6] = test system: Epidermal growth factor receptor (Homo sapiens), P00533 [L858R]; experiment: Residual activity of EGFR L858R mutant at 0.1 uM by microplate scintillation counting
[7] = target: Proto-oncogene tyrosine-protein kinase receptor Ret (Homo sapiens) (UniProt P07949); experiment: Residual activity of RET at 10 uM by microplate scintillation counting
[8] = target: T4, Serine/threonine-protein kinase Chk1 (Homo sapiens) (UniProt O14757); experiment: Residual activity of CHK1 at 10 uM by microplate scintillation counting
T4 sequence (whole entry): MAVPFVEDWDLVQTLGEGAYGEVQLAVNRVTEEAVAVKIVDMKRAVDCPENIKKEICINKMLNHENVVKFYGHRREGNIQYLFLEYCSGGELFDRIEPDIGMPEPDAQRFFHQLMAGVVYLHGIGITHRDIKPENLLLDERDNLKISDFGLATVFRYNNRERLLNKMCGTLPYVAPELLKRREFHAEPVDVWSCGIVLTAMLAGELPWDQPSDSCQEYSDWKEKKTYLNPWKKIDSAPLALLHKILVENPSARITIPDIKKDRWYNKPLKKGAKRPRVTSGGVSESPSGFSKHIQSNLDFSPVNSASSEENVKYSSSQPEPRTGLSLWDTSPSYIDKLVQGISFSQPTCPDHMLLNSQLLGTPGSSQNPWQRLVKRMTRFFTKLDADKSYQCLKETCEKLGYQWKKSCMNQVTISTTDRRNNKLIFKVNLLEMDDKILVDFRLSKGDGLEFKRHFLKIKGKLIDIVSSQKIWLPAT

[9] = target: Casein kinase I isoform gamma-2 (Homo sapiens) (UniProt P78368); experiment: Residual activity of CK1gamma2 at 10 uM by microplate scintillation counting
[10] = target: Serine/threonine-protein kinase PLK2 (Homo sapiens) (UniProt Q9NYY3); experiment: Residual activity of SNK at 10 uM by microplate scintillation counting
Serine/threonine-protein kinase PLK2 (Homo sapiens), sequence (Q9NYY3 whole entry, looked up): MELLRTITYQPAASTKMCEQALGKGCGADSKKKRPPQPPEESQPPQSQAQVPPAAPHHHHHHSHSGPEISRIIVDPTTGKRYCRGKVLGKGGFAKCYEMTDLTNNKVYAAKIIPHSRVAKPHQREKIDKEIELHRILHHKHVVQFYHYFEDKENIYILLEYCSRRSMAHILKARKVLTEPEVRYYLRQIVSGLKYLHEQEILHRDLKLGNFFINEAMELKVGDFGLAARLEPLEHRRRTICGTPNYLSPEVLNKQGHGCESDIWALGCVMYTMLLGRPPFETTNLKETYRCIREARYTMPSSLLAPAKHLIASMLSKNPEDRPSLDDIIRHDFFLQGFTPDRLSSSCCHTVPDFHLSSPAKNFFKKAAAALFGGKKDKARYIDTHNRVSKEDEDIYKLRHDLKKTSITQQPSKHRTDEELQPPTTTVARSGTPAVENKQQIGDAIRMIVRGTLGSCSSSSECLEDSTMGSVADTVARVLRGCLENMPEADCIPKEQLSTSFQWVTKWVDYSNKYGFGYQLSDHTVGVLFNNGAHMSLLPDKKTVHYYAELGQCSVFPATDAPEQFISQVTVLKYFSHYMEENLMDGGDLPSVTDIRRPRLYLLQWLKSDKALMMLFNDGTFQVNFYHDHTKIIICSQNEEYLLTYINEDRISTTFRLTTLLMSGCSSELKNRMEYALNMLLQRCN

Casein kinase I isoform gamma-2 (Homo sapiens), sequence (P78368 whole entry, looked up, canonical isoform): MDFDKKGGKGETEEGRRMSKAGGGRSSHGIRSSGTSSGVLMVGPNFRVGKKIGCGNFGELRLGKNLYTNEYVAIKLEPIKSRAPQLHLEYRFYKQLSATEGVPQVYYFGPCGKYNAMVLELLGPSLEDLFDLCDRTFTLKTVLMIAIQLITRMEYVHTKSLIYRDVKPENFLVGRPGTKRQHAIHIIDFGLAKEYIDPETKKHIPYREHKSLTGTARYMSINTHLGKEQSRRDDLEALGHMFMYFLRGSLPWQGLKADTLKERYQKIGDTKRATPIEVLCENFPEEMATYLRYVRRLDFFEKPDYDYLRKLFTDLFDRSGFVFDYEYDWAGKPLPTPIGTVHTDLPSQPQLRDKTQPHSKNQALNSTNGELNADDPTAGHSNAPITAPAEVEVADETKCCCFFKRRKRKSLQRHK
Ribosomal protein S6 kinase alpha-2 (Homo sapiens), sequence (Q15349 whole entry): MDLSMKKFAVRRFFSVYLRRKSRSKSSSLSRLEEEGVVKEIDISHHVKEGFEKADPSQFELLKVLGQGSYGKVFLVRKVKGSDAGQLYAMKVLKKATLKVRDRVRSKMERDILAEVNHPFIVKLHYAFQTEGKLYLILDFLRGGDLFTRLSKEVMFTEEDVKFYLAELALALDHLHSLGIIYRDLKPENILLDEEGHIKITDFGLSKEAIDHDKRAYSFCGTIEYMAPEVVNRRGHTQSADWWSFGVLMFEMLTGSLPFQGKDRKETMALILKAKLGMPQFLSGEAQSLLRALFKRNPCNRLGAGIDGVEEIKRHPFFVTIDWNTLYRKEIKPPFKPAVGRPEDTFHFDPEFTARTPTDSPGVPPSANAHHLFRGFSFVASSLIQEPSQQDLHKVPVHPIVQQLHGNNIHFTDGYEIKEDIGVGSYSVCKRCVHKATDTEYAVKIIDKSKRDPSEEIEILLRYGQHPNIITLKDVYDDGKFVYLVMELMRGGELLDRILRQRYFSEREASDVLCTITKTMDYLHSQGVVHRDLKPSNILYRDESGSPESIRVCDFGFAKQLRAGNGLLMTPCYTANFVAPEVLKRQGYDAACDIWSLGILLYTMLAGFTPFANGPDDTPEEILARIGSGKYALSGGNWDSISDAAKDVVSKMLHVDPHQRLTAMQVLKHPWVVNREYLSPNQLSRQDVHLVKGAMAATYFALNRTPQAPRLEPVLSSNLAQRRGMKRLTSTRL
Proto-oncogene tyrosine-protein kinase receptor Ret (Homo sapiens), sequence (P07949 whole entry): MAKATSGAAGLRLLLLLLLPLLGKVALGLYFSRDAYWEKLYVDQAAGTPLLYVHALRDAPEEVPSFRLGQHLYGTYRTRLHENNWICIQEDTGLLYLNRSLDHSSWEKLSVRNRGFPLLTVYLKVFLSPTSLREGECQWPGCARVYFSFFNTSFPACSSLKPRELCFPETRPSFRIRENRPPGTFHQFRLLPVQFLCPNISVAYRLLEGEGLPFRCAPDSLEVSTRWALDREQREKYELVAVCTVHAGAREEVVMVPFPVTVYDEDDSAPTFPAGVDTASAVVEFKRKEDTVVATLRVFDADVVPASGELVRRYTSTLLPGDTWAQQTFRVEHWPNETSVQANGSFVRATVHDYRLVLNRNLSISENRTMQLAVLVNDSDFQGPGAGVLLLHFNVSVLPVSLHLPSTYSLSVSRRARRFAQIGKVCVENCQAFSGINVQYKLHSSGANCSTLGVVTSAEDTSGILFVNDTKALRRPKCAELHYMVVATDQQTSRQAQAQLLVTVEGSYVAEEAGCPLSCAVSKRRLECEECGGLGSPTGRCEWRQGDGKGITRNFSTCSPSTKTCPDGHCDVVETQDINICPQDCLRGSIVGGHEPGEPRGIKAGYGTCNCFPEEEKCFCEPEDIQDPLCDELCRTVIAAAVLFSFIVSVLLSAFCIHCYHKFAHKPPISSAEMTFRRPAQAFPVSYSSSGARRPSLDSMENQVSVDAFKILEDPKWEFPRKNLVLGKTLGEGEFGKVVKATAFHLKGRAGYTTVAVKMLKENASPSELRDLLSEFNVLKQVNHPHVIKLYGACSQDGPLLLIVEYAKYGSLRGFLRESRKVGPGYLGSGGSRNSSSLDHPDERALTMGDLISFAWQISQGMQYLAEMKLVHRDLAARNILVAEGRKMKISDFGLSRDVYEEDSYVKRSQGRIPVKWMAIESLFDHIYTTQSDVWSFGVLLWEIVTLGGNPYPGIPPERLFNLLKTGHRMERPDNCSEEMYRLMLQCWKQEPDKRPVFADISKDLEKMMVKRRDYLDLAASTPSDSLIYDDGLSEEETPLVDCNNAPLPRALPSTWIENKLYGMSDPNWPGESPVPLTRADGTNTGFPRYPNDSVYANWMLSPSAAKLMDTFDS
Aurora kinase B, sequence (Q96GD4 whole entry): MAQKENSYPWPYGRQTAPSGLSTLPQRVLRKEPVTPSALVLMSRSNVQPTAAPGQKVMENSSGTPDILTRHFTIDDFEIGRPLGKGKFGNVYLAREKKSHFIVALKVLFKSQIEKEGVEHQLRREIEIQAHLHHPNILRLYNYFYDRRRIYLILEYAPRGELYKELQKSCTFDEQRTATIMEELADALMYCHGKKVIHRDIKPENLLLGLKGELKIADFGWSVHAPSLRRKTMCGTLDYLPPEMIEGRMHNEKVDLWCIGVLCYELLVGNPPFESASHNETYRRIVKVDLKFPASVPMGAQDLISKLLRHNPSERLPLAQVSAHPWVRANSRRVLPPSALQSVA
Fibroblast growth factor receptor 3 (Homo sapiens), sequence (P22607 23-806 limits assumed): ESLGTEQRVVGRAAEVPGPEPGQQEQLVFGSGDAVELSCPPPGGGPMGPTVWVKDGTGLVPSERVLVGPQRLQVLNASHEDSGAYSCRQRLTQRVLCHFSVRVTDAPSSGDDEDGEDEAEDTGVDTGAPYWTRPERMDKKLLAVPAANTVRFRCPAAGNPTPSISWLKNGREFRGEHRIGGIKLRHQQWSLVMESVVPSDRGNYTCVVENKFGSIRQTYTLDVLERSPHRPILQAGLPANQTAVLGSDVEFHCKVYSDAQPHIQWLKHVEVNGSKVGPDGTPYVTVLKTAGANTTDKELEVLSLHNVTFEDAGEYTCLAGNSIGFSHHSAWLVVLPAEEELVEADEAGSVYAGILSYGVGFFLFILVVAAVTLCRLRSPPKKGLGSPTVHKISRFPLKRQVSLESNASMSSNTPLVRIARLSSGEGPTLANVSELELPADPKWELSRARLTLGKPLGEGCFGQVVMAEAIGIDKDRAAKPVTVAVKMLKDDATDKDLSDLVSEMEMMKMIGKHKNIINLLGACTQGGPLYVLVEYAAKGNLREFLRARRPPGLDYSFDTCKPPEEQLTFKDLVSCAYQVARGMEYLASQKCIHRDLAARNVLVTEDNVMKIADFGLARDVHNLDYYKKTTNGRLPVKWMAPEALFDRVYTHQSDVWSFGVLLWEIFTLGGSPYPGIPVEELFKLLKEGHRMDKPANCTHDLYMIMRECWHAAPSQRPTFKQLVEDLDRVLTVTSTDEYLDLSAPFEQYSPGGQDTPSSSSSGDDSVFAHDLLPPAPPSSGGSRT

| Structure (SMILES) | residual activity [1] [%] | residual activity [2] [%] | residual activity (Aurora kinase B) [%] | residual activity [3] [%] | residual activity [4] [%] | residual activity [5] [%] | residual activity [6] [%] | residual activity [7] [%] | residual activity [8] [%] | residual activity [9] [%] | residual activity [10] [%] |
| --- | --- | --- | --- | --- | --- | --- | --- | --- | --- | --- | --- |
| COc1cc2c(Oc3ccc(-c4nc5ccccc5s4)cc3F)ncnc2cc1OCCCN1CCN(C)CC1 | 93 | 91 | 3 | 162 | 100 | 99 | 94 | 5 | 142 | 226 | 99 |
| COc1cc2c(Oc3ccc(-c4nc5ccccc5s4)cc3)ncnc2cc1OCCCN1CCCC1 | 91 | 110 | 3 | 235 | 104 | 99 | 92 | 21 | 101 | 198 | 120 |
| COc1cc2c(Oc3ccc(-c4nc5ccccc5s4)cc3)ncnc2cc1OCCCN1CCN(C)CC1 | 104 | 96 | 5 | 141 | 95 | 88 | 93 | 13 | 131 | 217 | 108 |
